# In ChEMBL document CHEMBL5584245, “Structure-activity relationship of dual inhibitors containing maleimide and imidazole motifs against glutaminyl cyclase and glycogen synthase kinase-3β” (Bioorg Med Chem Lett, 2024):
# Columns and labels:
# [1] = molecular target: Glutaminyl-peptide cyclotransferase (Homo sapiens, UniProt Q16769); assay: Inhibition of glutaminyl cyclase (unknown origin)
# [2] = molecular target: Glycogen synthase kinase-3 beta (Homo sapiens, UniProt P49841); assay: Inhibition of GSK-3beta (unknown origin)
# Sequence of Glycogen synthase kinase-3 beta (P49841 whole entry): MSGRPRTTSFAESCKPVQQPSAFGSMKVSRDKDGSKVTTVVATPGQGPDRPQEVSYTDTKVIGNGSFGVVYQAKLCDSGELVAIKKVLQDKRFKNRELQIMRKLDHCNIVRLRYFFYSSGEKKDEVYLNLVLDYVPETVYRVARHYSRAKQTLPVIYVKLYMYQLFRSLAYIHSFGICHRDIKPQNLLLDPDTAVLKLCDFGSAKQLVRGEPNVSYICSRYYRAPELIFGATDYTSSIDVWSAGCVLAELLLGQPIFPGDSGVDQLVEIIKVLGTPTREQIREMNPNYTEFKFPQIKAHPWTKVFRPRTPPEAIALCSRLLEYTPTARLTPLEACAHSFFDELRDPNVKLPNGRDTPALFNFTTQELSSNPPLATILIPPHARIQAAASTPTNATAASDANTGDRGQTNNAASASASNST
# Sequence of Glutaminyl-peptide cyclotransferase (Q16769 whole entry): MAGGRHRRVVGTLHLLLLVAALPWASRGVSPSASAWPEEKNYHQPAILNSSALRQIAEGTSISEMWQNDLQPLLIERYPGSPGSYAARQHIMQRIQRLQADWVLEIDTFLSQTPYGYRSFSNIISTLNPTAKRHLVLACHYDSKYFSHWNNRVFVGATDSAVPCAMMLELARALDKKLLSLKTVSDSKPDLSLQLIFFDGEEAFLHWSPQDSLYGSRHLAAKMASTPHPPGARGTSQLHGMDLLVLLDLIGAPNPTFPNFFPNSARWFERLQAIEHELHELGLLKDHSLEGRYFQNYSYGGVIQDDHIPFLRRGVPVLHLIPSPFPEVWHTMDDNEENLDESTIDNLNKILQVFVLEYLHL
Structure (SMILES),IC50 [1] [µM],IC50 [2] [µM]
Cc1cncn1CCCn1cc(C2=C(c3ccc(OCCCn4ccnc4)cc3)C(=O)NC2=O)c2ccccc21,15,0.104
Cc1ccccc1C1=C(c2cn(CCCn3cncc3C)c3ccccc23)C(=O)NC1=O,1.76,0.059
Cc1cncn1CCCn1cc(C2=C(c3cc(F)c(F)cc3F)C(=O)NC2=O)c2ccccc21,2.6,0.122
COc1cc(C2=C(c3cn(CCCn4cncc4C)c4ccccc34)C(=O)NC2=O)ccc1OCCCCc1ccccc1,26.2,0.091
Cc1cncn1CCCn1cc(C2=C(c3ccc(OCCCN4CCCC4)cc3)C(=O)NC2=O)c2ccccc21,3.92,0.162
COc1cc(C2=C(c3cn(CCCn4cncc4C)c4ccccc34)C(=O)NC2=O)ccc1OCCCc1ccccc1,18.1,0.177
Cc1cncn1CCCn1cc(C2=C(c3ccccc3)C(=O)NC2=O)c2ccccc21,2.3,0.014
CCCOc1ccc(C2=C(c3cn(CCCn4cncc4C)c4ccccc34)C(=O)NC2=O)cc1,20,0.15
COc1ccccc1C1=C(c2cn(CCCn3cncc3C)c3ccccc23)C(=O)NC1=O,1.71,0.023
Cc1cncn1CCCn1cc(C2=C(c3ccc(OCCCCn4ccnc4)cc3)C(=O)NC2=O)c2ccccc21,11.2,0.133
Cc1cncn1CCCn1cc(C2=C(c3ccc(OCCCN4CCN(c5ccccc5)CC4)cc3)C(=O)NC2=O)c2ccccc21,9.55,0.197
Cc1cncn1CCCn1cc(C2=C(c3ccc(OCCCCN4CCOCC4)cc3)C(=O)NC2=O)c2ccccc21,2.21,0.057
Cc1cncn1CCCn1cc(C2=C(c3ccc([N+](=O)[O-])cc3)C(=O)NC2=O)c2ccccc21,1.89,0.161
Cc1cccc(C2=C(c3cn(CCCn4cncc4C)c4ccccc34)C(=O)NC2=O)c1,6.23,0.103
Cc1cncn1CCCn1cc(C2=C(c3ccc(F)cc3)C(=O)NC2=O)c2ccccc21,3.22,0.102
COc1cc(C2=C(c3cn(CCCn4cncc4C)c4ccccc34)C(=O)NC2=O)ccc1OCCCCN1CCCCC1,0.83,0.064
COc1cc(C2=C(c3cn(CCCn4cncc4C)c4ccccc34)C(=O)NC2=O)ccc1OCCCN1CCOCC1,7.02,0.089
Cc1cncn1CCCn1cc(C2=C(c3ccc(OCCCN4CCN(C)CC4)cc3)C(=O)NC2=O)c2ccccc21,1.3,0.074
Cc1cncn1CCCn1cc(C2=C(c3cccc(F)c3)C(=O)NC2=O)c2ccccc21,10.8,0.064
CCCCOc1ccc(C2=C(c3cn(CCCn4cncc4C)c4ccccc34)C(=O)NC2=O)cc1,10.2,0.053

# Further lines, results first:
IC50 [1] [µM],IC50 [2] [µM],Structure (SMILES)
2.76,0.029,Cc1cncn1CCCn1cc(C2=C(c3ccccc3F)C(=O)NC2=O)c2ccccc21
6.32,0.055,COc1cccc(C2=C(c3cn(CCCn4cncc4C)c4ccccc34)C(=O)NC2=O)c1
1.12,0.087,Cc1cncn1CCCn1cc(C2=C(c3ccc(OCCCN4CCCCC4)cc3)C(=O)NC2=O)c2ccccc21
6.99,0.192,Cc1cncn1CCCn1cc(C2=C(c3ccc(OCCCCc4ccccc4)cc3)C(=O)NC2=O)c2ccccc21
1.08,0.093,Cc1cncn1CCCn1cc(C2=C(c3ccc(OCCCCN4CCCC4)cc3)C(=O)NC2=O)c2ccccc21
3.24,0.015,Cc1cncn1CCCn1cc(C2=C(c3ccc(OCCCCN4CCN(C)CC4)cc3)C(=O)NC2=O)c2ccccc21
4.59,0.036,COc1ccc(C2=C(c3cn(CCCn4cncc4C)c4ccccc34)C(=O)NC2=O)cc1OC
1.13,0.051,COc1cc(C2=C(c3cn(CCCn4cncc4C)c4ccccc34)C(=O)NC2=O)ccc1OCCCN1CCCCC1
1.51,0.178,Cc1cncn1CCCn1cc(C2=C(c3ccc(OCCCN4CCOCC4)cc3)C(=O)NC2=O)c2ccccc21
6.13,0.047,Cc1cncn1CCCn1cc(C2=C(c3cccc([N+](=O)[O-])c3)C(=O)NC2=O)c2ccccc21
13,0.059,COc1cc(C2=C(c3cn(CCCn4cncc4C)c4ccccc34)C(=O)NC2=O)ccc1OCCCCN1CCOCC1
2.2,0.068,Cc1cncn1CCCn1cc(C2=C(c3ccc(OCCCCN4CCCCC4)cc3)C(=O)NC2=O)c2ccccc21
1.22,0.002,Cc1cncn1CCCn1cc(C2=C(c3ccccc3[N+](=O)[O-])C(=O)NC2=O)c2ccccc21
7.97,0.182,Cc1cncn1CCCn1cc(C2=C(c3ccc(OCCCc4ccccc4)cc3)C(=O)NC2=O)c2ccccc21
7.63,0.2,Cc1cncn1CCCn1cc(C2=C(c3ccc(OCCCCN4CCN(c5ccccc5)CC4)cc3)C(=O)NC2=O)c2ccccc21
